Reference: US20250057910A1, “Application of Polypeptide in Preparation of Product for Preventing or Treating Skin Injury Diseases” (Sichuan Gooddoctor Panxi Pharmaceutical Co., Ltd., priority 2021, published 2025)
Ends that are not written are not given here.

Test system: SD rats
Experiment: Healing of full-layer skin defect wound in SD rats
Assay type: in vivo, rat
Settings: SD rats, topical once a day, polypeptide 50 μg/cm^2, comparative polypeptide 1 41.90 μg/cm^2, comparative polypeptide 2 52.66 μg/cm^2, Mean ± SD, n = 8
Protocol: Experimental animals: SD male rats, SPF grade, 6 weeks old, weighing 180-220 g, from Beijing Vital River Laboratory Animal Technology Co., Ltd., with the experimental animal quality certification number of NO.110011220109610345, and the experimental animal use license number of SCXK (Beijing) 2021-0011.
Experimental method: SD rats were randomly divided into […] based on the body weight with 8 animals in each group, namely, vehicle group, the polypeptide group (50 μg/cm^2), comparative polypeptide 1 group (41.90 μg/cm^2) and comparative polypeptide 2 group (52.66 μg/cm^2). The amino acid sequence of comparative polypeptide 1 is Glu-Pro-Val-Pro-Leu; and the amino acid sequence of comparative polypeptide 2 is Pro-Ala-Ala-Glu-Pro-Val-Pro-Leu-Val-Lys-Gln-Glu.
After each experimental rat was anesthetized by intraperitoneal injection of 2% pentobarbital sodium (0.2 mL/100 g), a 2 cm^2 full-layer skin defect wound was prepared at each of both sides of the back spine. After hemostasis of the wound, the corresponding drug was administered at the wound locally by group. Each group was administered once a day, with a dosed volume of 72 μL/wound each time, for 14 consecutive days. After the administration, the wound was covered with a sterile vaseline gauze (5 cm*5 cm), and bandaged with multi-layer sterile gauzes. After the wound surgery, the wound was photographed, and the wound area was recorded as the baseline value (the wound was recorded as Day0). During the administration period, the areas of the wounds were photographed and measured 3 times a week, and the healing was observed.

| Substance | Wound healing rate (Day 0 (baseline)) | Wound healing rate (Day 3) | Wound healing rate (Day 5) | Wound healing rate (Day 7) | Wound healing rate (Day 10) |
| --- | --- | --- | --- | --- | --- |
| Glu-Pro-Val-Pro-Leu (EPVPL; printed: Glu-Pro-Val-Pro-Leu) [Comparative polypeptide 1] | 0.00 ± 0.00% | 21.13 ± 17.43% | 40.18 ± 17.43% | 68.84 ± 7.64% | 88.90 ± 8.40% |
| PAAEPVPLVKQE [Comparative polypeptide 2] | 0.00 ± 0.00% | 17.21 ± 22.78% | 50.08 ± 16.55% | 65.26 ± 14.46% | 90.34 ± 3.04% |
